Test results taken from patent US10988477B2 (Merck Patent GmbH, priority 2018, dated 2021).

Columns and labels:
[1] = target: intracellular GCN2 (phosphorylation of the GCN2 substrate eIF2α) (Homo sapiens, UniProt Q9P2K8); experiment: GCN2 cellular inhibition assay (AlphaScreen SureFire P-eIF2α Ser51, borrelidin-treated U2OS cells); format: cell-based; details: biomarker assay, phosphorylated eIF2α Ser51 in borrelidin-treated U2OS cells
Method in brief: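 Borrelidin at 10 μM is added to U2OS cells immediately after compound (4-fold dilution series, 40 μM top final) for 1 h at 37 °C. Phosphorylated eIF2α Ser51 in lysates is quantified by AlphaScreen and expressed as percent inhibition against borrelidin-stimulated controls.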

GCN2 kinase = GCN2 kinase (Homo sapiens, UniProt Q9P2K8); experiment: GCN2 enzyme inhibition assay (Transcreener ADP2 fluorescence polarization); format: biochemical; details: 280 μM ATP
Method in brief: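 Kinase activity is followed as ADP formation, measured by fluorescence polarization, using 4 nM enzyme with 280 μM ATP and 200 μM (RS)7 peptide at pH 7.5 and 25 °C for 1 h. Values come from a non-linear tight-binding fit.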

[2] = compounds of Formula II, 4 nM GCN2 kinase
[3] = Enzyme activity for compounds of Formula IV, Ki(app), 25° C.

GCN2 kinase, sequence (Q9P2K8 whole entry): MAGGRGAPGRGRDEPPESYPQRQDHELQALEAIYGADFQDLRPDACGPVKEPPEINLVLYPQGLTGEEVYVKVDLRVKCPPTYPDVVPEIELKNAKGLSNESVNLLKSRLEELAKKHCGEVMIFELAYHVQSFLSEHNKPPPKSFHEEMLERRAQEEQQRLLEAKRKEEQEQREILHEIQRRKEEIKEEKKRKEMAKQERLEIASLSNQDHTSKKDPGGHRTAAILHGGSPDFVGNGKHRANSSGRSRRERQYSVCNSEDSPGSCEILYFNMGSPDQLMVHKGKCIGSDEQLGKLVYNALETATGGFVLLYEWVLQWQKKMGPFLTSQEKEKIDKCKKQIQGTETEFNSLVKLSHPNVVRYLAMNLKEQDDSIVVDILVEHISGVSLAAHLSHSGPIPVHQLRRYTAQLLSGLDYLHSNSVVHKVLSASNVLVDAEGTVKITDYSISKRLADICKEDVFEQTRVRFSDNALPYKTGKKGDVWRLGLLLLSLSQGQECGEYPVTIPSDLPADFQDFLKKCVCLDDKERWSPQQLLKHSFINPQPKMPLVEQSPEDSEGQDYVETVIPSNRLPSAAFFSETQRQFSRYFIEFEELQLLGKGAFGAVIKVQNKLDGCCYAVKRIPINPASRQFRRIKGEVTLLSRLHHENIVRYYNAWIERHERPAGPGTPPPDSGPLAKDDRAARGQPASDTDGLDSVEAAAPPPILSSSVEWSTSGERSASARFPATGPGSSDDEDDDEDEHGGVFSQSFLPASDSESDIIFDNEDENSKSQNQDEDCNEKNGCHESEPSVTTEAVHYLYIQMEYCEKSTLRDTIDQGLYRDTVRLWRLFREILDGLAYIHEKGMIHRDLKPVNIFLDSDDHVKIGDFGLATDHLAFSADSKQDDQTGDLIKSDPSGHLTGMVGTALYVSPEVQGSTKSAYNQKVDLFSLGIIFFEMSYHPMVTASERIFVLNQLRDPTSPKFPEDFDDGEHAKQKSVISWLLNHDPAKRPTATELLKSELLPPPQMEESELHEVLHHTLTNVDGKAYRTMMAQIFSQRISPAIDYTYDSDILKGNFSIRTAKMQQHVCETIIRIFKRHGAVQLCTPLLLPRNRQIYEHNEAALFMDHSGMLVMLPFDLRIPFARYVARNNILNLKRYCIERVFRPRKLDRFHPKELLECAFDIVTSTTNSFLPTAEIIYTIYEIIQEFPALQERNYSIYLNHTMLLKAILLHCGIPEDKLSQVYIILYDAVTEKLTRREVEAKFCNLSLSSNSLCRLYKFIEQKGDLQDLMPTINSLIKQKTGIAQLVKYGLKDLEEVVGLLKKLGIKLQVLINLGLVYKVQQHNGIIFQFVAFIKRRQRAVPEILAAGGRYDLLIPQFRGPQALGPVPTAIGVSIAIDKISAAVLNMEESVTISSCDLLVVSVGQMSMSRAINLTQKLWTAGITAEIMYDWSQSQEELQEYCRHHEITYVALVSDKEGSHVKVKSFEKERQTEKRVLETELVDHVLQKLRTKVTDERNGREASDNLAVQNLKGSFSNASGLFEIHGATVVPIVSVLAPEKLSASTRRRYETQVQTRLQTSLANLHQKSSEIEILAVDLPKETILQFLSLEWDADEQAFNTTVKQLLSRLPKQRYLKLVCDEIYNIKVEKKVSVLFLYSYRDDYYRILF
intracellular GCN2 (phosphorylation of the GCN2 substrate eIF2α), sequence (Q9P2K8 whole entry): as above

| SMILES | IC50 ([1]; compounds of Formula II) | Ki (GCN2 kinase; [2]) | IC50 ([1]; compounds of Formula IV) | IC50 (GCN2 kinase; compounds of Formula IV, 4 nM GCN2 kinase) | Ki (GCN2 kinase; [3]) |
| --- | --- | --- | --- | --- | --- |
| C[C@@H]1CC[C@H](CNS(C)(=O)=O)CN1c1cc(-c2cnc3ccc(C(F)F)nn23)ncn1 [II-247, N-(((3S,6R)-1-(6-(6-(Difluoromethyl)imidazo[1,2-b]pyridazin-3-yl)pyrimidin-4-yl)-6-methylpiperidin-3-yl)methyl)methanesulfonamide] | < 500 nM | < 10 nM |  |  |  |
| CS(=O)(=O)NCC1CN(c2cc(-c3cnc4ccc(C(F)F)nn34)ncn2)CC1O (stereo not drawn) [II-140, N-((1-(6-(6-(Difluoromethyl)imidazo[1,2-b]pyridazin-3-yl)pyrimidin-4-yl)-4-hydroxypyrrolidin-3-yl)methyl)methanesulfonamide] | > 5000 nM | 10 to 1000 nM |  |  |  |
| CS(=O)(=O)N1CCN(C(=O)C2CCCN(c3cc(-c4cnc5ccc(C(F)F)nn45)ncn3)C2)CC1 (stereo not drawn) [II-206, (1-(6-(6-(Difluoromethyl)imidazo[1,2-b]pyridazin-3-yl)pyrimidin-4-yl)piperidin-3-yl)(4-(methylsulfonyl)piperazin-1-yl)methanone] | > 5000 nM | 10 to 1000 nM |  |  |  |
| OCCC1CN(c2cc(-c3cnc4ccc(C(F)F)nn34)ccn2)CCO1 (stereo not drawn) [II-146, 2-(4-(4-(6-(Difluoromethyl)imidazo[1,2-b]pyridazin-3-yl)pyridin-2-yl)morpholin-2-yl)ethanol] | 500 to 5000 nM | 10 to 1000 nM |  |  |  |
| NC(=O)c1cc(C2CCCN(c3cc(-c4cnc5ccc(C(F)F)nn45)ncn3)C2)n[nH]1 (stereo not drawn) [II-205, 3-(1-(6-(6-(Difluoromethyl)imidazo[12-b]pyridazin-3-yl)pyrimidin-4-yl)piperidin-3-yl)-1H-pyrazole-5-carboxamide] | 500 to 5000 nM | 10 to 1000 nM |  |  |  |
| CS(=O)(=O)N1CCCC2(CN(c3cc(-c4cnc5ccc(C(F)F)nn45)ncn3)CCO2)C1 (stereo not drawn) [II-288, 4-(6-(6-(Difluoromethyl)imidazo[1,2-b]pyridazin-3-yl)pyrimidin-4-yl)-8-(methylsulfonyl)-1-oxa-4,8-diazaspiro[5.5]undecane] | > 5000 nM | 10 to 1000 nM |  |  |  |
| O=C(NC1CC1)NC1CCN(c2cc(-c3cnc4ccc(C(F)F)nn34)ncn2)C1 (stereo not drawn) [II-216, 1-Cyclopropyl-3-(1-(6-(6-(difluoromethyl)imidazo[1,2-b]pyridazin-3-yl)pyrimidin-4-yl)pyrrolidin-3-yl)urea] | > 5000 nM | 10 to 1000 nM |  |  |  |
| CC(=O)N1CCN(c2cc(-c3cnc4ccc(Cl)nn34)ccn2)CC1 [II-208, 1-(4-(4-(6-Chloroimidazo[1,2-b]pyridazin-3-yl)pyridin-2-yl)piperazin-1-yl)ethanone] | > 5000 nM | 10 to 1000 nM |  |  |  |
| NS(=O)(=O)CCC1CCCCN1c1cc(-c2cnc3ccc(C(F)F)nn23)ncn1 (stereo not drawn) [II-283, 2-(1-(6-(6-(Difluoromethyl)imidazo[1,2-b]pyridazin-3-yl)pyrimidin-4-yl)piperidin-2-yl)ethane-1-sulfonamide] | > 5000 nM | 10 to 1000 nM |  |  |  |
| FC(F)c1ccc2ncc(-c3cc(C4CCCN(C5COC5)C4)ncn3)n2n1 (stereo not drawn) [II-180, 6-(Difluoromethyl)-3-(6-(1-(oxetan-3-yl)piperidin-3-yl)pyrimidin-4-yl)imidazo[1,2-b]pyridazine] | > 5000 nM | 10 to 1000 nM |  |  |  |
| C[C@@H]1C[C@H](N=S(C)(C)=O)[C@H](C)N(c2cc(-c3cnc4ccc(C(F)F)nn34)ncn2)C1 (single isomer, unassigned) [II-631] | < 500 nM | < 10 nM |  |  |  |
| CS(=O)(=O)NCC1CCN(c2cc(-c3cnc4ccc(C(F)F)nn34)ccn2)C1 (stereo not drawn) [II-123, N-((1-(4-(6-(Difluoromethyl)imidazo[1,2-b]pyridazin-3-yl)pyridin-2-yl)pyrrolidin-3-yl)methyl)methanesulfonamide] | 500 to 5000 nM | 10 to 1000 nM |  |  |  |
| CS(=O)(=O)NCC1CC(N2CC(F)C2)CN(c2cc(-c3cnc4ccc(C(F)F)nn34)ncn2)C1 (stereo not drawn) [II-428, N-((1-(6-(6-(Difluoromethyl)imidazo[1,2-b]pyridazin-3-yl)pyrimidin-4-yl)-5-(3-fluoroazetidin-1-yl)piperidin-3-yl)methyl)methanesulfonamide] | > 5000 nM | 10 to 1000 nM |  |  |  |
| O=C1CN(CC2CCN(c3cc(-c4cnc5ccc(C(F)F)nn45)ncn3)C2)CCN1 (stereo not drawn) [II-353, 4-((1-(6-(6-(Difluoromethyl)imidazo[1,2-b]pyridazin-3-yl)pyrimidin-4-yl)pyrrolidin-3-yl)methyl)piperazin-2-one] | > 5000 nM | 10 to 1000 nM |  |  |  |
| CS(=O)(=O)NC1CCC2(CCN(c3cc(-c4cnc5ccc(C(F)F)nn45)ncn3)C2)C1 (single isomer, unassigned) [II-95, N-(2-(6-(6-(Difluoromethyl)imidazo[1,2-b]pyridazin-3-yl)pyrimidin-4-yl)-2-azaspiro[4.4]nonan-7-yl)methanesulfonamide] | 500 to 5000 nM | 10 to 1000 nM |  |  |  |
| CC1CN(c2cc(-c3cnc4ccc(C(F)F)nn34)ncn2)CC1CNS(C)(=O)=O (stereo not drawn) [II-238, N-((1-(6-(6-(Difluoromethyl)imidazo[1,2-b]pyridazin-3-yl)pyrimidin-4-yl)-4-methylpyrrolidin-3-yl)methyl)methanesulfonamide] | 500 to 5000 nM | 10 to 1000 nM |  |  |  |
| NCC1CCN(c2cc(-c3cnc4ccc(C(F)F)nn34)ncn2)C1 (stereo not drawn) [II-409, (1-(6-(6-(Difluoromethyl)imidazo[1,2-b]pyridazin-3-yl)pyrimidin-4-yl)pyrrolidin-3-yl)methanamine] | > 5000 nM | 10 to 1000 nM |  |  |  |
| FC(F)c1ccc2ncc(-c3ccnc(N4CCN5CCNCC5C4)c3)n2n1 (stereo not drawn) [II-38, 2-(4-(6-(Difluoromethyl)imidazo[1,2-b]pyridazin-3-yl)pyridin-2-yl)octahydro-1H-pyrazino[1,2-a]pyrazine] | > 5000 nM | 10 to 1000 nM |  |  |  |
| CC(NS(C)(=O)=O)C1CN(c2ccnc(-c3cnc4ccc(C(F)F)nn34)c2)CCO1 (stereo not drawn) [II-105, N-(1-(4-(2-(6-(Difluoromethyl)imidazo[1,2-b]pyridazin-3-yl)pyridin-4-yl)morpholin-2-yl)ethyl)methanesulfonamide] | 500 to 5000 nM | < 10 nM |  |  |  |
| CC1(O)CC(CNS(C)(=O)=O)CN(c2cc(-c3cnc4ccc(C(F)F)nn34)ncn2)C1 (single isomer, unassigned) [II-6, N-((1-(6-(6-(Difluoromethyl)imidazo[1,2-b]pyridazin-3-yl)pyrimidin-4-yl)-5-hydroxy-5-methylpiperidin-3-yl)methyl)methanesulfonamide] | 500 to 5000 nM | 10 to 1000 nM |  |  |  |
| NC(=O)CC1CN(c2cc(-c3cnc4ccc(C(F)F)nn34)ncn2)CCN1 (stereo not drawn) [II-483, 2-(4-(6-(6-(Difluoromethyl)imidazo[1,2-b]pyridazin-3-yl)pyrimidin-4-yl)piperazin-2-yl)acetamide] | > 5000 nM | 10 to 1000 nM |  |  |  |

Now from value to compound:

| IC50 ([1]; compounds of Formula II) | Ki (GCN2 kinase; [2]) | IC50 ([1]; compounds of Formula IV) | IC50 (GCN2 kinase; compounds of Formula IV, 4 nM GCN2 kinase) | Ki (GCN2 kinase; [3]) | SMILES |
| --- | --- | --- | --- | --- | --- |
|  |  | < 500 nM | 10 to 1000 nM |  | C[C@@H]1C[C@H](c2cn[nH]c2)CN(c2ccnc(-c3cnc4cnc(C(F)(F)F)cn34)n2)C1 [IV-770, 3-(4-((3R,5R)-3-methyl-5-(1H-pyrazol-4-yl)piperidin-1-yl)pyrimidin-2-yl)-6-(trifluoromethyl)imidazo[1,2-a]pyrazine] |
|  |  | 500 to 5000 nM |  | < 10 nM | N#Cc1cn2c(-c3nccc(N4CCOC(c5cn[nH]c5)C4)n3)cnc2cn1 (stereo not drawn) [IV-18, 3-(4-(2-(1H-Pyrazol-4-yl)morpholino)pyrimidin-2-yl)imidazo[1,2-a]pyrazine-6-carbonitrile] |
|  |  | > 5000 nM |  | 100 to 1000 nM | CC(=O)N1CCN(c2ccnc(-c3cnc4cnc(C(F)(F)F)cn34)n2)CC1 [IV-24, 1-(4-(2-(6-(Trifluoromethyl)imidazo[1,2-a]pyrazin-3-yl)pyrimidin-4-yl)piperazin-1-yl)ethan-1-one] |
|  |  | 500 to 5000 nM |  | 10 to 100 nM | CC1C(C(N)=O)CCN1c1ccnc(-c2cnc3cnc(C(F)(F)F)cn23)n1 (single isomer, unassigned) [IV-615, 2-Methyl-1-(2-(6-(trifluoromethyl)imidazo[1,2-a]pyrazin-3-yl)pyrimidin-4-yl)pyrrolidine-3-carboxamide] |
|  |  | > 5000 nM |  | 100 to 1000 nM | NC(=O)c1cc(C2CCCN(c3ccnc(-c4cnc5cnc(C(F)F)cn45)n3)C2)n[nH]1 (stereo not drawn) [IV-94, 3-(1-(2-(6-(Difluoromethyl)imidazo[1,2-a]pyrazin-3-yl)pyrimidin-4-yl)piperidin-3-yl)-1H-pyrazole-5-carboxamide] |
|  |  | > 5000 nM |  | 100 to 1000 nM | CS(=N)(=O)CC1CCCN(c2ccnc(-c3cnc4cnc(C(F)(F)F)cn34)n2)C1 (stereo not drawn) [IV-34, Imino(methyl)((1-(2-(6-(trifluoromethyl)imidazo[1,2-a]pyrazin-3-yl)pyrimidin-4-yl)piperidin-3-yl)methyl)-λ^6-sulfanone] |
|  |  | 500 to 5000 nM |  | 10 to 100 nM | CC1CN(c2ccnc(-c3cnc4cnc(C(F)(F)F)cn34)n2)CC(c2cn[nH]c2)O1 (single isomer, unassigned) [IV-15, 2-Methyl-6-(1H-pyrazol-4-yl)-4-(2-(6-(trifluoromethyl)imidazo[1,2-a]pyrazin-3-yl)pyrimidin-4-yl)morpholine] |
|  |  | 500 to 5000 nM |  | < 10 nM | Cc1cc(N2CC(C)NC(c3cn[nH]c3)C2C)nc(-c2cnc3cnc(C(F)(F)F)cn23)n1 (stereo not drawn) [IV-627, 3-(4-(2,5-Dimethyl-3-(1H-pyrazol-4-yl)piperazin-1-yl)-6-methylpyrimidin-2-yl)-6-(trifluoromethyl)imidazo[1,2-a]pyrazine] |
|  |  | > 5000 nM |  | 100 to 1000 nM | FC(F)c1cn2c(-c3nccc(N4CCC5(CCNCC5)C4)n3)cnc2cn1 [IV-140, 2-(2-(6-(Difluoromethyl)imidazo[1,2-a]pyrazin-3-yl)pyrimidin-4-yl)-2,8-diazaspiro[4.5]decane] |
